Measurements taken from ChEMBL document CHEMBL5584226, “α-Fluorination of tropane compounds and its impact on physicochemical and ADME properties” (Bioorg Med Chem Lett, 2024).
In brackets after ≈: the same amount, converted by molar mass.

Legend:
[1] = Aqueous solubility of the compound in PBS buffer at pH 7.4; format: physicochemical
[2] = Aqueous solubility of the compound in JP1 at pH 1.2; format: physicochemical; settings: JP1, pH 1.2
P-gp (ABCB1) = P-gp (ABCB1) (Homo sapiens, UniProt P08183); test: Substrate activity at P-gp (unknown origin) assessed as efflux ratio; format: ADME; settings: not told
[3] = molecular target: Voltage-gated inwardly rectifying potassium channel KCNH2 (Homo sapiens, UniProt Q12809); test: Inhibition of hERG; format: toxicity
[4] = molecular target: Sodium channel protein type 5 subunit alpha (Homo sapiens, UniProt Q14524); test: Inhibition of Nav1.5 (unknown origin)
[5] = Microsomal stability in human liver microsomes assessed as parent compound remaining measured after 15 mins; format: ADME, Microsome; settings: read-out: Stability
[6] = Permeability of the compound by PAMPA method; format: ADME; settings: read-out: permeability
[7] = Dissociation constant, pKa of the compound; format: physicochemical

Chain of Sodium channel protein type 5 subunit alpha (Q14524 whole entry): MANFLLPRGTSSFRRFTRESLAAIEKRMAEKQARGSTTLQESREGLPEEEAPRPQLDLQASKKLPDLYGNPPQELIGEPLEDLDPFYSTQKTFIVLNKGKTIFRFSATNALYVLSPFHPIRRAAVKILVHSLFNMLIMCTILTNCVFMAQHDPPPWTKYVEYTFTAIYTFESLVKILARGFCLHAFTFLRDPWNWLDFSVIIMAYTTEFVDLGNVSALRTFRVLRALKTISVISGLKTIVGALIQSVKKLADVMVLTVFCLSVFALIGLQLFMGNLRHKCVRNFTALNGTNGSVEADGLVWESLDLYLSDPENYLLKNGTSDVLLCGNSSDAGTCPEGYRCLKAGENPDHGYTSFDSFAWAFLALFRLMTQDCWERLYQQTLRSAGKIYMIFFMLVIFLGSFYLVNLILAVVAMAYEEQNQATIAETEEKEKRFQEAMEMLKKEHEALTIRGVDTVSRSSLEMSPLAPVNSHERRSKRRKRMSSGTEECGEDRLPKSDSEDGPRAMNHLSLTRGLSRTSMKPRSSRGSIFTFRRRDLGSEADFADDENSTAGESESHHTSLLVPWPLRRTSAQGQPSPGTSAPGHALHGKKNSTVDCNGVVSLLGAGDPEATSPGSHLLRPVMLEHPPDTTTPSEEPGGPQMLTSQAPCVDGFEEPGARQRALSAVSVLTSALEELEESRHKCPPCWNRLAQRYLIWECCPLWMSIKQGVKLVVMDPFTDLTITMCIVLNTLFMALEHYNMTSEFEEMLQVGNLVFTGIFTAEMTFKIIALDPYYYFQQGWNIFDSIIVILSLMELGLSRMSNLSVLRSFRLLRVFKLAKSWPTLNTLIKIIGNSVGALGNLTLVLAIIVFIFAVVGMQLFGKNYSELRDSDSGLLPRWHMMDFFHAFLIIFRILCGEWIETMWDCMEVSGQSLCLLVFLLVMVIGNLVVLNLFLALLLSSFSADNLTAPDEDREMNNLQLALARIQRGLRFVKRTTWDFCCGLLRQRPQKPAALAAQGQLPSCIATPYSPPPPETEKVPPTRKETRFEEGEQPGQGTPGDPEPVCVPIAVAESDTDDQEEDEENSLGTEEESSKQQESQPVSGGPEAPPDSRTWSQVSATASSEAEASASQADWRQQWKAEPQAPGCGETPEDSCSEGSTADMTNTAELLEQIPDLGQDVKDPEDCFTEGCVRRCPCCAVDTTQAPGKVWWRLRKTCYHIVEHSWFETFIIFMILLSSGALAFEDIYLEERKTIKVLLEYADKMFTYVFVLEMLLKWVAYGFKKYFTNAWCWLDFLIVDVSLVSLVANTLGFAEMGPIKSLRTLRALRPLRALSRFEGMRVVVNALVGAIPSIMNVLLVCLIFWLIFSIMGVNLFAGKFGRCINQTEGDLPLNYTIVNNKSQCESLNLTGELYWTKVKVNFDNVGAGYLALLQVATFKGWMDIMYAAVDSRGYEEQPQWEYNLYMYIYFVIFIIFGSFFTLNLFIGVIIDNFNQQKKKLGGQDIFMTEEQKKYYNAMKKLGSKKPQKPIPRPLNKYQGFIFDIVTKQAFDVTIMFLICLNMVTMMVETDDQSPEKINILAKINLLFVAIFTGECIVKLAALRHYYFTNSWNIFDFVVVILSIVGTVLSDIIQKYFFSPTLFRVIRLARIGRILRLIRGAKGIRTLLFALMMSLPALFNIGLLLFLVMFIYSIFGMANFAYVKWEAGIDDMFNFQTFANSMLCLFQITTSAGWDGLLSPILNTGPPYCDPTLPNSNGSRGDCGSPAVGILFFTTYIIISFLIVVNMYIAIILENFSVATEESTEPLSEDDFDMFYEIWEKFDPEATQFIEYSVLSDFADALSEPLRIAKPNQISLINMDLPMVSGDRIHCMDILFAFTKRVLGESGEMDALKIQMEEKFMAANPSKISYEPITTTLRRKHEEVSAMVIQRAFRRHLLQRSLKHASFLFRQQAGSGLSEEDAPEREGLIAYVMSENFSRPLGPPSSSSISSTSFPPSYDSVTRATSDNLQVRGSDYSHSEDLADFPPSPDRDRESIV
Chain of P-gp (ABCB1) (P08183 whole entry): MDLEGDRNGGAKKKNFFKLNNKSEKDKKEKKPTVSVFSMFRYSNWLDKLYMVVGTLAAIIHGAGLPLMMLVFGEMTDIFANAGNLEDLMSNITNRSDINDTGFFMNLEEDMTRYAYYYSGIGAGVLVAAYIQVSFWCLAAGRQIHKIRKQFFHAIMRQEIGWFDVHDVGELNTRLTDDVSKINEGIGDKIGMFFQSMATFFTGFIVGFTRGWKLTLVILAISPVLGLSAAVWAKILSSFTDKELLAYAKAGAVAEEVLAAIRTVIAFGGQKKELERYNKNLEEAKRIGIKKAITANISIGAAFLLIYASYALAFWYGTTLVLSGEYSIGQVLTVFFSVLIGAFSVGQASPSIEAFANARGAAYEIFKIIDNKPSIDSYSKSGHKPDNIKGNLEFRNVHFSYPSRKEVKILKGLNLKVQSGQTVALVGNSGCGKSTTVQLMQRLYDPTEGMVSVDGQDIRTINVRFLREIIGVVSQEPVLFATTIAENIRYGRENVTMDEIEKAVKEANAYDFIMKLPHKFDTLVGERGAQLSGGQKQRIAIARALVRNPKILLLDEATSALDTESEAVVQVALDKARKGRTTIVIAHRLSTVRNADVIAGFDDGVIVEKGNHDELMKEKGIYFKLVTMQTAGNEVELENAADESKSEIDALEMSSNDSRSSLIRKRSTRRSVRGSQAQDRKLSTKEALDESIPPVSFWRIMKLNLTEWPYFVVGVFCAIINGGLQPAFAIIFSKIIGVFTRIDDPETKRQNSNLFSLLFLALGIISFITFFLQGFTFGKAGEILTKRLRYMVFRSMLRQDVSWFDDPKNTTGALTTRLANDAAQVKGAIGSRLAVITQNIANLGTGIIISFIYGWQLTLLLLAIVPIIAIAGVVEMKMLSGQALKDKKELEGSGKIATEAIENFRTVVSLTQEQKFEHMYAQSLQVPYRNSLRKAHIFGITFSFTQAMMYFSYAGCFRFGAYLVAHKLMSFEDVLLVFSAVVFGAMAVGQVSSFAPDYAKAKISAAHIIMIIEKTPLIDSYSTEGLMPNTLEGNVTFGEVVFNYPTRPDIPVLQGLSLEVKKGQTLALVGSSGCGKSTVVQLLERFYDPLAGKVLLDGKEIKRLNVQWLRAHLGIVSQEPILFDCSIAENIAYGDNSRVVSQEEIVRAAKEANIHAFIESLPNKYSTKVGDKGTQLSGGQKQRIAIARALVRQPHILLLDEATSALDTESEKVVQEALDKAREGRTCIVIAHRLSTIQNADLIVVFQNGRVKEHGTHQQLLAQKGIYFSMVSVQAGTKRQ
Chain of Voltage-gated inwardly rectifying potassium channel KCNH2 (Q12809 whole entry): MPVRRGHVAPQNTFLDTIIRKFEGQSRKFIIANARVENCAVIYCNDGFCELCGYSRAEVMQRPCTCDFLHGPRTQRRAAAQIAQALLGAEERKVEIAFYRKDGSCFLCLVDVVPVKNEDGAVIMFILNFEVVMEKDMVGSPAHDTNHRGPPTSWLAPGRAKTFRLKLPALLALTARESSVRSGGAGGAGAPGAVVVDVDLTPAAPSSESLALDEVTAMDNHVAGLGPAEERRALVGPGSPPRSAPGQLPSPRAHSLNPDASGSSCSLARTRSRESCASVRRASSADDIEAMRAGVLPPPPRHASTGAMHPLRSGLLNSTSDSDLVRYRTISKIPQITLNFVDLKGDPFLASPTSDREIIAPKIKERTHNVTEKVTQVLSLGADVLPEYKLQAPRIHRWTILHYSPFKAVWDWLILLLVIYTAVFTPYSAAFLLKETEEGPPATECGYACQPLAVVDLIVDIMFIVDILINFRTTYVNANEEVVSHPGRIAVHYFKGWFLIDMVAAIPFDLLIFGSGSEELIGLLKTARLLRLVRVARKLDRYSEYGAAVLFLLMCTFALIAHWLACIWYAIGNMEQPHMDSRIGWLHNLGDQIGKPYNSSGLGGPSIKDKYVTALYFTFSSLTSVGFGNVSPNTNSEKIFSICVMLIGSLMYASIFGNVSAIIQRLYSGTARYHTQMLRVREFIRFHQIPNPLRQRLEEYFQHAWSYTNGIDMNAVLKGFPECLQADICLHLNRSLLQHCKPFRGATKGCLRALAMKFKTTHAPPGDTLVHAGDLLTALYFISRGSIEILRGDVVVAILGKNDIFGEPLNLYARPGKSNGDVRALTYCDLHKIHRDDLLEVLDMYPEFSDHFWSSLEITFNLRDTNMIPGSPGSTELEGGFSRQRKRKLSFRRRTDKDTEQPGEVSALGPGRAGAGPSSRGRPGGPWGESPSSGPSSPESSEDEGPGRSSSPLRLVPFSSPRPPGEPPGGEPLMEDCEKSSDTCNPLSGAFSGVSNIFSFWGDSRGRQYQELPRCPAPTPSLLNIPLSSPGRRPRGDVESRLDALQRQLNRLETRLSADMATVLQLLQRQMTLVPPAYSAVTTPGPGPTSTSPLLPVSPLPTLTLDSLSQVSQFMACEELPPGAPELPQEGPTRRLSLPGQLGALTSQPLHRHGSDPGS

Compound	solubility [1]	solubility [2]	efflux ratio (P-gp (ABCB1))	IC50 [3]	IC50 [4]	remaining at 0.25 h [5]	Papp [6]	pKa [7]
O=c1n(CC(F)CN2C3CCC2CC(OCc2ccccc2F)C3)nc2n1CCC2 (stereo not drawn)	82 µM (≈ 34.3 µg/mL)	79 µM (≈ 33.1 µg/mL)	2.52	22.2 µM	13.4 µM	92.3%	4.44 ×10⁻⁶ cm/s	
O=c1n(CC(F)CN2C3CCC2CC(OCc2ccccc2F)C3)nc2ccccn12 (stereo not drawn)	82 µM (≈ 35.1 µg/mL)	≥ 100 µM	1.27	1.8 µM	17.8 µM	66.9%	10.6 ×10⁻⁶ cm/s	8.1
O=c1n(CCCN2C3CCC2CC(OCc2ccccc2F)C3)nc2n1CCC2 (stereo not drawn)	≥ 100 µM	≥ 100 µM	19.4	5.2 µM	5.9 µM	95.8%	1.62 ×10⁻⁶ cm/s	
O=c1n(CCCN2C3CCC2(F)CC(OCc2ccccc2F)C3)nc2ccccn12 (stereo not drawn)	73 µM (≈ 31.3 µg/mL)	≥ 100 µM	0.96	7.6 µM	> 30 µM	10.7%	10.6 ×10⁻⁶ cm/s	5.4
O=c1n(CC(O)CN2C3CCC2CC(OCc2ccccc2F)C3)nc2n1CCC2 (stereo not drawn)	94 µM (≈ 39.2 µg/mL)	≥ 100 µM	9.16	19.7 µM	12.9 µM	99.8%	0.46 ×10⁻⁶ cm/s	
O=c1n(CCCN2C3CCC2CC(COc2ccccc2F)C3)nc2ccccn12 (stereo not drawn)	95 µM (≈ 39 µg/mL)	≥ 100 µM	3.07	0.07 µM	6 µM	45.6%	4.86 ×10⁻⁶ cm/s	
O=c1n(CC(O)CN2C3CCC2CC(OCc2ccccc2F)C3)nc2ccccn12 (stereo not drawn)	95 µM (≈ 40.5 µg/mL)	≥ 100 µM	6.36	1.2 µM	11.9 µM	82%	2.16 ×10⁻⁶ cm/s	
O=c1n(CCCN2C3CCC2(F)CC(OCc2ccccc2F)C3)nc2n1CCC2 (stereo not drawn)	96 µM (≈ 40.2 µg/mL)	≥ 100 µM	1.39	> 30 µM	> 30 µM	31.8%	7.78 ×10⁻⁶ cm/s	
O=c1n(CCCN2C3CCC2CC(OCc2ccccc2F)C3)nc2ccccn12 (stereo not drawn)	99 µM (≈ 40.6 µg/mL)	≥ 100 µM	3.39	0.11 µM	3 µM	70.9%	4.93 ×10⁻⁶ cm/s	8.7
O=c1n(CCCN2C3CCC2(F)CC(COc2ccccc2F)C3)nc2ccccn12 (racemic)	61 µM (≈ 26.1 µg/mL)	≥ 100 µM	1.34	> 30 µM	> 30 µM	34.7%	11.1 ×10⁻⁶ cm/s	
